Experimental data from US20220304945A1, “METHODS OF TREATING METABOLIC SYNDROME RELATED CONDITIONS USING RETINOIC ACID RECEPTOR AGONISTS” (Cornell University, priority 2014, published 2022).
Entries after “also recorded” stand apart in the source; their conditions may differ.

What was measured:
Format in all cases: in vivo, mouse
[1] = test system: 4-HNE, oxidative stress in the liver; assay: 4-HNE staining of liver, HF-fed mice; details: HF diet mice; vs high fat diet group
Source text: (§1) Mice, diet, and drug treatment. WT male C57/BL6 male mice were maintained on either a standard laboratory chow-fed diet (CFD) with 13% kcal fat, (diet #5053, Lab Diet, Inc, St. Louis, Mo.) or a high fat, western style diet (HFD) with 60% kcals from fat, (diet #58126, Lab Diet, Inc., St. Louis, Mo.) for 4 months. One month after the start of the high fat diet treatment, the high fat diet group was further split into 2 groups for 3 months: i) high fat diet and the drinking water containing 1% DMSO; ii) high fat diet and the drinking water containing 1.5 mg/100 ml AC261066, a specific RARβ agonist. Then mice were sacrificed by cervical dislocation. Blood and various tissue samples were harvested.
(§2) 4-hydroxynonenal (4-HNE) staining. Paraffin-embedded sections (from two to four mice per group) were deparaffinized and rehydrated, and antigen retrieval was performed using an antigen unmasking solution (Vector Laboratories, H-3300). After quenching endogenous peroxidase with 3% H2O2, the tissue sections were blocked with the blocking reagent (from the M.O.M. kit from Vector Laboratories). Then, tissue sections were incubated with a 4-HNE antibody (1:400; mouse monoclonal antibody; Abcam, ab48506) overnight at 4° C. The sections were then incubated with secondary antibodies (1:200, anti-mouse IgG from the M.O.M kit). […]

Ob/Ob and Db/Db mice = assay: Metabolic studies (body weight, GTT, insulin secretion, ITT) in Ob/Ob and Db/Db mice, 8 weeks
RARβ2 mRNA = assay: Semi-quantitative PCR of pancreas, HF-fed mice; details: HF diet mice; vs HF-vehicle
Source text: as §1
(§3) Semi-Quantitate PCR. Total RNA was extracted from mouse tissues using TRIzol reagent (Life technologies) and (1 μg) was used to synthesize cDNA. cDNA synthesis was performed at 42° C. for 1 h in a final volume of 20 μl using qScript (Quanta, MD). Semi-quantitative PCR were performed Taq DNA polymerase (Invitrogen, CA). Three step PCR was run as follows: 94° C. for 30 s, 58-64° C. for 45 s for primer annealing and 72° C. for 1 min for primer extension. The number of cycles for each primer pair for amplification in the linear range was determined experimentally. PCR products were resolved on 2% agarose gels and visualized by staining with ehtidium bromide. […]

TNF-α, RARβ2, LRAT mRNA = assay: Semi-quantitative PCR of kidney, HF-fed mice; details: HF diet mice 4 months
Source text: as §1
as §3, with “Semi-Quantitative” for “Semi-Quantitate”, “bromide. Primers for gene expression used were as follows:” for “bromide.”

[2] = test system: 4-HNE, oxidative stress in pancreatic islets; assay: 4-hydroxynonenal (4-HNE) staining of pancreas, HF-fed mice; details: HF diet mice, AC261066 in drinking water; vs HF-vehicle
Source text: as §1, §2

HFD-fed C57/BL6 mice = assay: Acute administration (8 days) to HFD-fed mice: body weight, intake, random glucose, GTT, ITT
Method: FIG. 31. Acute administration of Retinoic Acid Receptor β (RARβ) agonist AC261066 reverses high fat induced glucose intolerance and insulin resistance. A-C) Body weights, water and food intake of wild type C57/B16 male mice after 3 months of being fed either: a standard chow (13% Kcal/fat) diet (Wt Con, n=4), a high fat (45% Kcal/fat) diet (HFD, n=4) or 3 months of a HFD mice plus 8 days of administration of the RARβ agonist AC261066 (n=4) in their drinking water at a dose of 5.4 mg/Kg BW/day. On day 8 mice were tested for glucose intolerance and insulin resistance. D and E) Random glucose and glucose tolerance test (GTT) of mice described in A. F) Insulin tolerance test of mice described in A.
Metabolic Measurements-Glucose tolerance was performed using an intraperitoneal glucose tolerance test (GTT) as previously described (Trasino et al., Vitamin A Deficiency Causes Hyperglycemia and Loss of Pancreatic β-Cell Mass, J Biol Chem. 2014 Dec. 1. pii: jbc.M114.616763). […] Tail vein blood glucose was measured at 20, 40, 60 and 120 minutes after injection using a FreeStyle Lite Blood Glucose Monitoring System (Abbott Diabetes Care, Inc. Alameda, Calif.). To determine insulin secretion responses to glucose, serum fractions were isolated between 0-60 minutes post glucose injections and insulin concentrations were measured using an Ultrasensitive Insulin ELISA Kit (Alpco, Inc. Salem, N.H.). […]

CCCCOCCOc1nc(-c2ccc(C(=O)O)c(F)c2)sc1C [AC261066]
4-HNE level (oxidative stress, ROS) in liver [1]: reduces oxidative stress; also recorded: lower | pancreatic insulin secretion (Ob/Ob and Db/Db mice; Ob/Ob mice): decreased | body weights (Ob/Ob and Db/Db mice; genetically obese and diabetic Ob/Ob and Db/Db mice): significant reductions | pancreatic RARβ2 mRNA level (RARβ2 mRNA): increased | kidney LRAT mRNA level (TNF-α, RARβ2, LRAT mRNA): restores | kidney RARβ2 mRNA level (TNF-α, RARβ2, LRAT mRNA): restores; also recorded: did not have decreased | kidney TNF-α mRNA level (TNF-α, RARβ2, LRAT mRNA): reduces | 4-HNE level (oxidative stress) in pancreatic islets [2]: reduces oxidative stress; also recorded: markedly lower | random glucose levels (HFD-fed C57/BL6 mice; after 24 hours of administration): significant reductions | hyperglycemia (glucose intolerance) and insulin resistance (HFD-fed C57/BL6 mice; after 8 days of administration): reverses; also recorded: significant reductions
